Values after ≈ are worked out from the molar mass of the structure shown. Read-outs that look alike come from different tables or passages of the source.
What was measured:
[1] = tested on: Enterobacter cloacae 13047; experiment: agar serial dilution MIC; type: cell-based; conditions: Example 4
Protocol: (§1) A stock solution of 7-[2-(4,5-dihydro-5-imino-1,3,4-thiadiazol-2-ylthio)acetamido]cephalosporanic acid as the hydrobromic acid addition salt containing 2,500 μg. of the active moiety is prepared in phosphate buffer. Two fold serial dilutions are prepared with phosphate buffer. One milliliter (ml.) quantities of each dilution are incorporated in 9 ml. seen agar in sterile Petri plates. The hardened surface is innoculated with test organisms using a Steers replicating device. The plates are incubated at 35° C. for 18 hours.
(§2) The test organisms are Bacillus subtilis (BA SU) 6633; Staphylococcus aureus (ST AU) 6538P, Smith CHP, and 3-180; Mycobacterium smegmatis (MY SM) 10143; Neisseria catarrhalis (NE CA) 8193; Pseudonomas aeruginosa (PS AE) 10145; Escherichia coli (ES CO) 9637, and 920; Escherichia intermedia (ES IN) 65-1; Salmonella paratyphi (SA PA) 11737; Enterobacter aerogenes (EN AE) 13048; Klebsiella pneumoniae (KL PN) 10031; Bordetella bronchiseptica (BO BR) 4617; Proteus vulgaris (PR VU) 6896; and Herellea species (HE SP) 9955. These organisms are grown for 18 hours in Brain heart infusion at 35° C. Prior to use the cultures are diluted 10 fold with the infusion, except in the case of Mycobacterium. The latter is grown in Emerson's broth for 5 days at 28° C. in shaker flasks and used undiluted.
(§3) Following the procedure of Example 2 but substituting the organisms listed below the same preparation of 7-[2-(4,5-dihydro-5-imino-1,3,4-thiadiazol-2-ylthio)acetamido]cephalosporanic acid (Compound A) as used in Example 3, a third sample of the same compound, prepared as described in Example 1 (Compound B) and 7-[2-(5-acetamido-1,3,4-thiadiazol-2-ylthio)acetamido]cephalosporanic acid (Compound C) are tested to obtain the results shown: […]

[2] = tested on: Serratia marcescens 13880; experiment: agar serial dilution MIC; type: cell-based; conditions: Example 4
Protocol: as §1, §2, §3

[3] = tested on: Providencia stuartii 25825; experiment: agar serial dilution MIC; type: cell-based; conditions: Example 4
Protocol: as §1, §2, §3

[4] = tested on: Citrobacter diversus 27156; experiment: agar serial dilution MIC; type: cell-based; conditions: Citrobacter koseri, Example 4
Protocol: as §1, §2, §3

Edwardsiella tarda 15947 = experiment: agar serial dilution MIC; type: cell-based
Protocol: as §1, §2, §3

[5] = tested on: Serratia liquefaciens 27592; experiment: agar serial dilution MIC; type: cell-based; conditions: Example 4
Protocol: as §1, §2, §3

Serratia rubidae 27593 = experiment: agar serial dilution MIC; type: cell-based; conditions: Example 4
Protocol: as §1, §2, §3

Arizona arizonae 13314 = experiment: agar serial dilution MIC; type: cell-based
Protocol: as §1, §2, §3

Shigella sonnei 11060 = experiment: agar serial dilution MIC; type: cell-based; conditions: Example 4
Protocol: as §1, §2, §3

Shigella boydii 9207 = experiment: agar serial dilution MIC; type: cell-based; conditions: Example 4
Protocol: as §1, §2, §3

[6] = tested on: Enterobacter agglomerans 27155; experiment: agar serial dilution MIC; type: cell-based
Protocol: as §1, §2, §3

[7] = tested on: Klebsiella pneumoniae 13883; experiment: agar serial dilution MIC; type: cell-based
Protocol: as §1, §2, §3

Proteus rettgeri 9918 = experiment: agar serial dilution MIC; type: cell-based; conditions: Providencia rettgeri, Example 4
Protocol: as §1, §2, §3

[8] = tested on: Citrobacter freundii 8090; experiment: agar serial dilution MIC; type: cell-based; conditions: Example 4
Protocol: as §1, §2, §3

[9] = tested on: Staphylococcus aureaus CHP; experiment: mice infected intraperitoneally, single dose six hours post-infection, deaths and CD50; type: in vivo; conditions: for ED50: Staphylococcus, po, single dose, mice; for Deaths / Total No. Treated: oral
Protocol: Mice are infected intraperitoneally with a standardized suspension of Staphylococcus aureaus CHP in 5% gastric mucin. The animals are randomized. Six hours post-infection a single dose of the compound indicated is administered by the route indicated. The animals are observed for a 30 day period and deaths are recorded daily. The CD50 for 14 and 30 days as determined by the method of Reed and Muench, American Journal of Hygiene (1938), for each compound is tabulated:
7-[2-(5-Acetylamino-1,3,4-thiadiazol-2-ylthio)acetamido]cephalosporanic acid is tested as described in Example 5.

Q: Which results are given for `CC(=O)OCC1=C(C(=O)O)N2C(=O)C(NC(=O)CSc3n[nH]c(=N)s3)C2SC1` (stereo not shown) [7-[2-(4,5-Dihydro-5-Imino-1,3,4-Thiadiazol-2-ylthio)Acetamido]Cephalosporanic Acid]?
A: MIC [1]: > 250 µg/mL; MIC [2]: > 250 µg/mL; MIC [3]: 250 µg/mL (≈ 561 µM); MIC [4]: 1.95 µg/mL (≈ 4.38 µM); MIC (Edwardsiella tarda 15947; Edwardsiella tarda, 15947, Example 4): 31.3 µg/mL (≈ 70.3 µM); MIC (Edwardsiella tarda 15947; Edwardsiella tarda, 15947, Example 4, read-out: MIC): 15.6 µg/mL (≈ 35 µM); MIC [5]: > 250 µg/mL; MIC (Serratia rubidae 27593): > 250 µg/mL; MIC (Arizona arizonae 13314; Salmonella enterica, 13314, Example 4): 1.95 µg/mL (≈ 4.38 µM); MIC (Arizona arizonae 13314; Salmonella enterica, 13314, Example 4, read-out: MIC): 3.9 µg/mL (≈ 8.75 µM); MIC (Shigella sonnei 11060): 62.5 µg/mL (≈ 140 µM); MIC (Shigella boydii 9207): 62.5 µg/mL (≈ 140 µM); MIC ([6]; Pantoea agglomerans, 27155, Example 4): 7.81 µg/mL (≈ 17.5 µM); MIC ([6]; Pantoea agglomerans, 27155, Example 4, read-out: MIC): 15.6 µg/mL (≈ 35 µM); MIC ([7]; Klebsiella pneumoniae, 13883, Example 4): 7.81 µg/mL (≈ 17.5 µM); MIC ([7]; Klebsiella pneumoniae, 13883, Example 4, read-out: MIC): 15.6 µg/mL (≈ 35 µM); MIC (Proteus rettgeri 9918): 250 µg/mL (≈ 561 µM); MIC [8]: > 250 µg/mL; ED50 ([9]; 336 h, 14 Days): 3.21 mg/kg; ED50 ([9]; 720 h, 30 Days): 3.4 mg/kg; Deaths / Total No. Treated ([9]; 100 mg/kg., 14 Days): 10/10; Deaths / Total No. Treated ([9]; 100 mg/kg., 30 Days): 10/10; Deaths / Total No. Treated ([9]; 200 mg/kg., 14 Days): 4/10; Deaths / Total No. Treated ([9]; 200 mg/kg., 30 Days): 4/10; Deaths / Total No. Treated ([9]; 400 mg/kg., 14 Days): 0/10; Deaths / Total No. Treated ([9]; 400 mg/kg., 30 Days): 0/10; Deaths / Total No. Treated ([9]; 800 mg/kg., 14 Days): 0/10; Deaths / Total No. Treated ([9]; 800 mg/kg., 30 Days): 1/10
